The values below come from US9662339B2, “Benzodioxane inhibitors of leukotriene production for combination therapy” (Boehringer Ingelheim International GmbH, priority 2012, dated 2017).

What is called IC50 is the midpoint of a concentration-inhibition curve. Read a high IC50 as weaker potency in that assay.

Sequence of human LTA4 hydrolase (P09960 whole entry): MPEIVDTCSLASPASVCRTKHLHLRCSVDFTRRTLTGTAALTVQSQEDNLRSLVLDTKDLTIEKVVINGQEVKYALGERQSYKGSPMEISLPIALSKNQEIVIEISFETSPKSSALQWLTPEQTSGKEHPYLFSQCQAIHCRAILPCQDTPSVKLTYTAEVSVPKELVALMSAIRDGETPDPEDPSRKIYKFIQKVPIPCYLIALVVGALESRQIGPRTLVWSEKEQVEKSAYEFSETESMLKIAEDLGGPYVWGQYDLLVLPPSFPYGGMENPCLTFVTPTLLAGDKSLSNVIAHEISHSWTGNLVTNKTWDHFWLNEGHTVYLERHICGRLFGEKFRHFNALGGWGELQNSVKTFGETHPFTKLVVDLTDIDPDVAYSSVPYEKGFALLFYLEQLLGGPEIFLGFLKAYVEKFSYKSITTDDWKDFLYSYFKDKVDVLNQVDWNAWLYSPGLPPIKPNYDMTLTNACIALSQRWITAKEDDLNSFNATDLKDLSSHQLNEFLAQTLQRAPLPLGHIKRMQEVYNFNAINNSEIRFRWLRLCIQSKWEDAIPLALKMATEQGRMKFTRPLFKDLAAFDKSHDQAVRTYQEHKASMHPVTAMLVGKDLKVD

The experiment deals with human LTA4 hydrolase (Homo sapiens (Human), UniProt P09960). The experiment can be described thus: LTA4H Enzyme assay (cleavage of Arg-AMC, fluorescence). The experiment is classed as biochemical. The following applies: LTA4H Enzyme 1 nM, Arg-AMC substrate 50 μM, room temperature 1 h. Here is the method:
The compounds of the invention are assessed for the ability to interact with human LTA4 hydrolase in an enzymatic assay that measures the ability of the enzyme to cleave the peptide bond of arginyl-aminomethylcoumarin (Arg-AMC). LTA4H Enzyme (1 nM final), Arg-AMC substrate (50 μM final), and compound are combined in a reaction buffer (50 mM Tris-HCl (pH 7.5), 100 mM KCl, 0.5% bovine serum albumin) at room temperature for 1 h. The formation of product is assessed by measuring the fluorescence of aminomethylcoumarin product (excitation wavelength 380 nm/emission wavelength 460 nm).
As for `O=C1NC(=O)C2(CCN(Cc3ccc(C4COc5ccccc5O4)cc3)CC2)N1` (centres unmarked) [Example 35, 8-[4-(2,3-dihydro-1,4-benzodioxin-2-yl)benzyl]-1,3,8-triazaspiro[4.5]decane-2,4-dione], the half-maximal inhibitory concentration (IC50) was 0.26 nM.
In the case of `CC[C@@H](C)NCc1ccc(C2COc3ccccc3O2)cc1` (stereo partly drawn) [Example 24, (2R)-N-[4-(2,3-dihydro-1,4-benzodioxin-2-yl)benzyl]butan-2-amine] it was 5.9 nM.
Regarding `OC1CCN(Cc2ccc([C@H]3COc4ccccc4O3)cc2)CC1` [Example 192, (S)-1-[4-(2,3-Dihydro-benzo[1,4]dioxin-2-yl)-benzyl]-piperidin-4-ol], it took 0.43 nM to reach half-maximal inhibition (IC50). Compared with the last molecule, the IC50 is about 14-fold lower.
Turning to `CC(=O)N1CCN(Cc2ccc(C3COc4ccccc4O3)cc2)CC1` (centres unmarked) [Example 11, 1-{4-[4-(2,3-dihydro-1,4-benzodioxin-2-yl)benzyl]piperazin-1-yl}ethanone], inhibition was half-maximal at 2.95 nM (IC50). This IC50 is about 6.9-fold higher than that of the molecule before.
`COC1CN(Cc2ccc(C3COc4ccccc4O3)cc2)C1` (centres unmarked) [Example 36, 1-[4-(2,3-dihydro-1,4-benzodioxin-2-yl)benzyl]-3-methoxyazetidine] registered an IC50 of 4.45 nM.
As for `CC1(C)CCN(Cc2ccc(C3COc4ccccc4O3)cc2)CC1` (centres unmarked) [Example 3, 1-[4-(2,3-dihydro-1,4-benzodioxin-2-yl)benzyl]-4,4-dimethylpiperidine], the half-inhibitory concentration (IC50) came to 2.57 nM.
In the case of `CC(C)(O)C1CCN(Cc2ccc(C3COc4ccccc4O3)cc2)CC1` (centres unmarked) [Example 28, 2-{1-[4-(2,3-dihydro-1,4-benzodioxin-2-yl)benzyl]piperidin-4-yl}propan-2-ol] it was 3.4 nM.
`O=C1NCCC12CCN(Cc1ccc([C@@H]3COc4ccccc4O3)cc1)CC2` [Example 195, 8-[(R)-4-(2,3-Dihydro-benzo[1,4]dioxin-2-yl)-benzyl]-2,8-diaza-spiro[4.5]decan-1-one] yielded an IC50 of 1.59 nM.
In turn, `CCN(CC)Cc1ccc(C2COc3ccccc3O2)cc1` (centres unmarked) [Example 45, N-[4-(2,3-dihydro-1,4-benzodioxin-2-yl)benzyl]-N-ethylethanamine] came in with a concentration for half-maximal inhibition (IC50) of 0.9 nM.
`c1ccc2c(c1)OCC(c1ccc(CN3CCCOCC3)cc1)O2` (centres unmarked) [Example 32, 4-[4-(2,3-dihydro-1,4-benzodioxin-2-yl)benzyl]-1,4-oxazepane] yielded a half-inhibitory concentration (IC50) of 1.8 nM.
With `OC1CCN(Cc2ccc([C@@H]3COc4ccccc4O3)cc2)CC1` [Example 193, (R)-1-[4-(2,3-Dihydro-benzo[1,4]dioxin-2-yl)-benzyl]-piperidin-4-ol], the IC50 turned out to be 5.35 nM.
For `O=C1NCCC12CCN(Cc1ccc([C@H]3COc4ccccc4O3)cc1)CC2` [Example 194, 8-[(S)-4-(2,3-Dihydro-benzo[1,4]dioxin-2-yl)-benzyl]-2,8-diaza-spiro[4.5]decan-1-one], the half-maximal inhibitory concentration (IC50) was 0.15 nM.
Regarding `O[C@@H]1CCN(Cc2ccc(C3COc4ccccc4O3)cc2)C1` (stereo partly drawn) [Example 34, (3R)-1-[4-(2,3-dihydro-1,4-benzodioxin-2-yl)benzyl]pyrrolidin-3-ol], the concentration for half-maximal inhibition (IC50) worked out at 1.89 nM. This IC50 lies about 13-fold higher than the previous one.
`O=C1CCCN1CC1CCCN(Cc2ccc(C3COc4ccccc4O3)cc2)C1` (racemic) [Example 10, 1-({1-[4-(2,3-dihydro-1,4-benzodioxin-2-yl)benzyl]piperidin-3-yl}methyl)pyrrolidin-2-one] returned an IC50 of 0.75 nM.
The molecule `O=C(O)CCCC1CCN(Cc2ccc(C3COc4ccccc4O3)cc2)CC1` (racemic) [Example 26, 4-{1-[4-(2,3-dihydro-1,4-benzodioxin-2-yl)benzyl]piperidin-4-yl}butanoic acid] returned an IC50 of 0.43 nM.
`c1ccc2c(c1)OCC(c1ccc(CN3CCOCC3)cc1)O2` (centres unmarked) [Example 2, 4-[4-(2,3-dihydro-1,4-benzodioxin-2-yl)benzyl]morpholine] registered an IC50 of 2.45 nM.
Consider `c1cnc2c(c1)OCC(c1ccc(CN3CCCC3)cc1)O2` (racemic) [Example 15, 3-[4-(pyrrolidin-1-ylmethyl)phenyl]-2,3-dihydro[1,4]dioxino[2,3-b]pyridine], for which inhibition was half-maximal at 0.36 nM (IC50).
In turn, `c1ccc2c(c1)OC[C@H](c1ccc(CN3CCOCC3)cc1)O2` [Example 198, 4-[(S)-4-(2,3-dihydro-benzo[1,4]dioxin-2-yl)-benzyl]-morpholine] had an IC50 of 2.28 nM. Compared with the last molecule, the IC50 is about 6.3-fold higher.
In turn, `c1cnc2c(c1)OCC(c1ccc(CN3CCOCC3)cc1)O2` (racemic) [Example 18, 3-[4-(morpholin-4-ylmethyl)phenyl]-2,3-dihydro[1,4]dioxino[2,3-b]pyridine] yielded a half-inhibitory concentration (IC50) of 1.14 nM.
As for `c1ccc2c(c1)OCC(c1ccc(CNCC3CC3)cc1)O2` (centres unmarked) [Example 43, 1-cyclopropyl-N-[4-(2,3-dihydro-1,4-benzodioxin-2-yl)benzyl]methanamine], half-maximal inhibition (IC50) was put at 4.42 nM. Compared with the last molecule, the IC50 is about 3.9-fold higher.
With `O=S1(=O)CCN(Cc2ccc(C3COc4cccnc4O3)cc2)CC1` (racemic) [Example 17, 3-{4-[(1,1-dioxidothiomorpholin-4-yl)methyl]phenyl}-2,3-dihydro[1,4]dioxino[2,3-b]pyridine] the figure was 0.77 nM; with `c1ccc2c(c1)OC[C@H](c1ccc(CN3CCCC3)cc1)O2` [Example 196, 1-[(S)-4-(2,3-dihydro-benzo[1,4]dioxin-2-yl)-benzyl]-pyrrolidine], 0.39 nM.
In turn, `O=C(O)C1CCCN(Cc2ccc(C3COc4ccccc4O3)cc2)C1` (centres unmarked) [Example 113, 1-[4-(2,3-dihydro-1,4-benzodioxin-2-yl)benzyl]piperidine-3-carboxylic acid] displayed a half-inhibitory concentration (IC50) of 2.49 nM.
In the case of `OCCCC1CCN(Cc2ccc(C3COc4ccccc4O3)cc2)CC1` (centres unmarked) [Example 29, 3-{1-[4-(2,3-dihydro-1,4-benzodioxin-2-yl)benzyl]piperidin-4-yl}propan-1-ol] it was 2.04 nM.
With `Cn1cnc(CNCc2ccc(C3COc4ccccc4O3)cc2)c1` (racemic) [Example 55, 1-[4-(2,3-dihydro-1,4-benzodioxin-2-yl)phenyl]-N-[(1-methyl-1H-imidazol-4-yl)methyl]methanamine] the figure was 3.63 nM.
`O=C(C1CCN(Cc2ccc(C3COc4ccccc4O3)cc2)CC1)N1CCOCC1` (racemic) [Example 37, {1-[4-(2,3-dihydro-1,4-benzodioxin-2-yl)benzyl]piperidin-4-yl}(morpholin-4-yl)methanone] displayed a half-inhibitory concentration (IC50) of 1.05 nM.
As to `CS(=O)(=O)C1CCN(Cc2ccc(C3COc4ccccc4O3)cc2)CC1` (centres unmarked) [Example 39, 1-[4-(2,3-dihydro-1,4-benzodioxin-2-yl)benzyl]-4-(methylsulfonyl)piperidine], half-maximal inhibition (IC50) was put at 2.14 nM. This IC50 lies about 2-fold higher than the previous one.
Molecule `O=C(NCCO)C1CCN(Cc2ccc(C3COc4ccccc4O3)cc2)CC1` (racemic) [Example 52, 1-[4-(2,3-dihydro-1,4-benzodioxin-2-yl)benzyl]-N-(2-hydroxyethyl)piperidine-4-carboxamide] yielded an IC50 of 0.75 nM.
Molecule `O=S1(=O)CCN(Cc2ccc(C3COc4ccccc4O3)cc2)CC1` (centres unmarked) [Example 7, 4-[4-(2,3-dihydro-1,4-benzodioxin-2-yl)benzyl]thiomorpholine 1,1-dioxide] gave a 50% inhibitory concentration (IC50) of 2.79 nM.
Molecule `c1ccc2c(c1)OC[C@@H](c1ccc(CN3CCOCC3)cc1)O2` [Example 199, 4-[(R)-4-(2,3-dihydro-benzo[1,4]dioxin-2-yl)-benzyl]-morpholine] had an IC50 of 40.1 nM.
Consider `CN1CCCN(Cc2ccc(C3COc4ccccc4O3)cc2)CC1` (centres unmarked) [Example 30, 1-[4-(2,3-dihydro-1,4-benzodioxin-2-yl)benzyl]-4-methyl-1,4-diazepane], for which it took 1.77 nM to reach half-maximal inhibition (IC50).
In the case of `c1ccc2c(c1)OCC(c1ccc(CN3CCn4cnnc4C3)cc1)O2` (racemic) [Example 16, 7-[4-(2,3-dihydro-1,4-benzodioxin-2-yl)benzyl]-5,6,7,8-tetrahydro[1,2,4]triazolo[4,3-a]pyrazine], it took 2.32 nM to reach half-maximal inhibition (IC50).
Consider `OCC1CCN(Cc2ccc(C3COc4ccccc4O3)cc2)CC1` (centres unmarked) [Example 27, {1-[4-(2,3-dihydro-1,4-benzodioxin-2-yl)benzyl]piperidin-4-yl}methanol], for which the half-inhibitory concentration (IC50) is 1.2 nM.
In turn, `O=C1NCCC12CCN(Cc1ccc(C3COc4ccccc4O3)cc1)CC2` (centres unmarked) [Example 4, 8-[4-(2,3-dihydro-1,4-benzodioxin-2-yl)benzyl]-2,8-diazaspiro[4.5]decan-1-one] had a half-maximal inhibitory concentration (IC50) of 0.74 nM.
`O[C@H]1CCN(Cc2ccc(C3COc4ccccc4O3)cc2)C1` (mixture of isomers) [Example 9, (3S)-1-[4-(2,3-dihydro-1,4-benzodioxin-2-yl)benzyl]pyrrolidin-3-ol] yielded an IC50 of 1.49 nM. Against the preceding molecule, the IC50 is about 2-fold higher.
In the case of `CC(C)(C)NCc1ccc(C2COc3ccccc3O2)cc1` (centres unmarked) [Example 23, N-[4-(2,3-dihydro-1,4-benzodioxin-2-yl)benzyl]-2-methylpropan-2-amine], the midpoint of inhibition, the IC50, lay at 5.2 nM.
The molecule `c1ccc2c(c1)OCC(c1ccc(CN3CCCCCC3)cc1)O2` (centres unmarked) [Example 40, 1-[4-(2,3-dihydro-1,4-benzodioxin-2-yl)benzyl]azepane] showed an IC50 of 0.82 nM.
In the case of `c1ccc2c(c1)OC[C@@H](c1ccc(CN3CCCC3)cc1)O2` [Example 197, 1-[(R)-4-(2,3-dihydro-benzo[1,4]dioxin-2-yl)-benzyl]-pyrrolidine], the IC50 was 2.69 nM. This IC50 is about 3.3-fold higher than that of the molecule before.
Molecule `O=C(CNCc1ccc(C2COc3ccccc3O2)cc1)N1CCCC1` (centres unmarked) [Example 12, 2-{[4-(2,3-dihydro-1,4-benzodioxin-2-yl)benzyl]amino}-1-(pyrrolidin-1-yl)ethanone] gave an IC50 of 10.2 nM.
The molecule `N#CC1CN(Cc2ccc(C3COc4ccccc4O3)cc2)C1` (centres unmarked) [Example 46, 1-[4-(2,3-dihydro-1,4-benzodioxin-2-yl)benzyl]azetidine-3-carbonitrile] returned a 50% inhibitory concentration (IC50) of 24.8 nM. This IC50 is about 2.4-fold higher than that of the molecule before.
With `CN(C)C(=O)C1CCN(Cc2ccc(C3COc4ccccc4O3)cc2)CC1` (centres unmarked) [Example 51, 1-[4-(2,3-dihydro-1,4-benzodioxin-2-yl)benzyl]-N,N-dimethylpiperidine-4-carboxamide] the figure was 0.82 nM.
